Experimental data: ChEMBL document CHEMBL1139264 (Bioorg Med Chem Lett, 2009)

How the values were obtained:
[1] = molecular target: Estrogen receptor beta (Homo sapiens) (UniProt Q92731); experiment: Binding affinity to human ERbeta receptor relative to estrogen
Estrogen receptor = molecular target: T1, Estrogen receptor (Homo sapiens, UniProt P03372)
T1 sequence (P03372 whole entry): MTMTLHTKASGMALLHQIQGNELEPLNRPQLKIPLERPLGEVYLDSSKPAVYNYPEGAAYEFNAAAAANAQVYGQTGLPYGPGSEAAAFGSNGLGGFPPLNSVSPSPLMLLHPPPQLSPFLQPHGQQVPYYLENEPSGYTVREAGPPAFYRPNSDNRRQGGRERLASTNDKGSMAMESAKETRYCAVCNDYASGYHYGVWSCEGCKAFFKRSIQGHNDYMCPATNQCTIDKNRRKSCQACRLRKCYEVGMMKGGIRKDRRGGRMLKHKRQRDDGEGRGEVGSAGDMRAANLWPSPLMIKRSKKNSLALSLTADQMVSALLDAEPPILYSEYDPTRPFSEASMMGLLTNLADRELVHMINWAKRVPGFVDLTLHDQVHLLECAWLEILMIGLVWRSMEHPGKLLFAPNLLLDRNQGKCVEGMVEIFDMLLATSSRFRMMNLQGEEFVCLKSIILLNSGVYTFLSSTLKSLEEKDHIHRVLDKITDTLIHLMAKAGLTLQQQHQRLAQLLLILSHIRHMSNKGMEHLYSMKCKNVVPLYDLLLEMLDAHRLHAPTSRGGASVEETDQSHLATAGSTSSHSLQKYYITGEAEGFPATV
Description: Antagonist activity at human ERalpha receptor expressed in HEC1 cells assessed as transcriptional activation after 24 hrs by luciferase reporter gene assay

Estrogen receptor beta (Homo sapiens), sequence (Q92731 whole entry): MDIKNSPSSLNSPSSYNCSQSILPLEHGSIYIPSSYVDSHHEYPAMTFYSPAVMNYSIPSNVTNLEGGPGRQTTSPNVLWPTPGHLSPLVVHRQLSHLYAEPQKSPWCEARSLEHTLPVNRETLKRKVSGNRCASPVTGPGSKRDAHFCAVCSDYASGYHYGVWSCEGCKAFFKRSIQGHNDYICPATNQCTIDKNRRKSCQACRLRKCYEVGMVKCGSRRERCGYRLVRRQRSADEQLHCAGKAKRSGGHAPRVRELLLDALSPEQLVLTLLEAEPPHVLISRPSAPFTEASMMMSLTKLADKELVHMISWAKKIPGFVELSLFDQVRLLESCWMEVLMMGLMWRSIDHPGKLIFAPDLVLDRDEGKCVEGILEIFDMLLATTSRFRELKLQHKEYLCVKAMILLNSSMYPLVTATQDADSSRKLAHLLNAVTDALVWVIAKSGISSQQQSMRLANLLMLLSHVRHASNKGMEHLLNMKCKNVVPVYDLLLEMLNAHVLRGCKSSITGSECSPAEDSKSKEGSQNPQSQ

| Structure (SMILES) | Activity [1] [%] | IC50 (Estrogen receptor) [µM] |
| --- | --- | --- |
| Cc1c(-c2ccc(O)cc2)nn(-c2ccc(O)cc2)c1-c1ccc(OCCN2CCCCC2)cc1 | 0.05 | – |
| Cc1c(-c2ccc(O)cc2)nn(-c2ccc(O)cc2)c1-c1ccc(/C=C/C(=O)N2CCCCC2)cc1 | 0.015 | 1 |
| Cc1c(-c2ccc(O)cc2)nn(-c2ccc(O)cc2)c1-c1ccc(CCCN2CCCCC2)cc1 | 0.016 | 0.02 |
| Cc1c(-c2ccc(O)cc2)nn(-c2ccc(O)cc2)c1-c1ccc(O)cc1 | 0.039 | – |
